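How tested: cells in 96-well plates exposed to compound for 48 hours at five concentrations. At the GI50, growth is halved.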 Activity calls are given as the source filed them. Cut-off read from the data, not from the text of the source: active = GI50 up to about 1.1 µM and inactive = higher.
Experiments:
Test in all cases: NCI tumour cell line growth inhibition, 48 h
[1] = test system: A498
[2] = test system: MDA-MB-231
[3] = test system: K562
[4] = test system: MCF7
[5] = test system: SK-MEL-28
[6] = test system: Malme-3M
[7] = test system: ACHN
[8] = test system: NCI-H23
[9] = test system: COLO 205
[10] = test system: HOP-92
[11] = test system: RPMI-8226
[12] = test system: SN12C
[13] = test system: SF-295
[14] = test system: SK-OV-3
[15] = test system: OVCAR-4
[16] = test system: HCT-116
[17] = test system: SNB-19
[18] = test system: A549
[19] = test system: SF-539

Measured: GI50

C/C1=C\[C@H](C)C[C@H](C)OC(=O)C[C@H](c2ccc(O)cc2)NC(=O)[C@H](Cc2ccc(O)c(Br)c2)N(C)C(=O)[C@H](C)NC(=O)[C@@H](C)C1
inactive: [1] > 25 µM | [2] > 25 µM | [3] > 25 µM | [4] > 25 µM | [5] > 25 µM | [6] > 25 µM | [7] > 25 µM | [8] > 25 µM | [9] > 25 µM | [10] > 25 µM | [11] > 25 µM | [12] > 25 µM | [13] > 25 µM | [14] > 25 µM | [15] > 25 µM | [16] > 25 µM | [17] > 25 µM | [18] > 25 µM

CC(=O)Nc1ccc(S(=O)(=O)Nc2nc(-c3ccc(Cl)cc3)cc(N3N=C(c4ccc(Br)cc4)CC3c3ccccc3)n2)cc1 (stereo unspecified)
inactive: [2] 13.9 µM | [3] 7.21 µM | [4] 2.87 µM | [5] 18.6 µM | [6] 16.1 µM | [7] 24.5 µM | [8] 16.6 µM | [9] 14.1 µM | [10] 13.7 µM | [11] 12.1 µM | [12] 16 µM | [19] 16.9 µM | [13] 16.6 µM | [14] 15.8 µM | [15] 15 µM | [16] 14.4 µM | [17] 16 µM | [18] 17.7 µM

Cn1c2c(c3ccccc31)CCN1OCC=C[C@@H](C(=O)O)[C@@H]21
inactive: [1] > 100 µM | [2] > 100 µM | [4] > 100 µM | [5] > 100 µM | [6] > 100 µM | [7] > 100 µM | [9] > 100 µM | [10] 17.9 µM | [12] > 100 µM | [19] > 100 µM | [14] > 100 µM | [15] > 100 µM | [16] > 100 µM | [17] > 100 µM | [18] > 100 µM

CC1(CCCC2(C)CCNC2=O)OCCO1 (stereo unspecified)
inactive: [1] > 10 µM | [2] > 10 µM | [3] > 10 µM | [4] > 10 µM | [5] > 10 µM | [6] > 10 µM | [7] > 10 µM | [8] > 10 µM | [9] > 10 µM | [11] > 10 µM | [12] > 10 µM | [19] > 10 µM | [13] > 10 µM | [14] > 10 µM | [15] > 10 µM | [16] > 10 µM | [17] > 10 µM | [18] > 10 µM

Cn1c(=O)c2c(nc3n(Cc4ccccc4)c(=O)c(NCCBr)cn23)n(C)c1=O
inactive: [1] 34.9 µM | [2] 26.5 µM | [3] 46 µM | [4] 24.4 µM | [5] 53.5 µM | [7] 15.4 µM | [8] 40.4 µM | [9] 49.1 µM | [10] 12 µM | [11] 23.8 µM | [12] 32.6 µM | [13] 21.9 µM | [14] 25.3 µM | [15] 16.3 µM | [16] 28.8 µM | [17] 30.4 µM | [18] 29.6 µM

COCn1cnc2c(=O)n(-c3ccc(OC)cc3)c(=S)n(-c3ccc(OC)cc3)c21
inactive: [1] > 100 µM | [2] > 100 µM | [3] > 100 µM | [4] > 100 µM | [5] > 100 µM | [7] > 100 µM | [8] > 100 µM | [9] > 100 µM | [11] > 100 µM | [12] > 100 µM | [19] > 100 µM | [13] > 100 µM | [14] > 100 µM | [15] 89.3 µM | [16] > 100 µM | [18] > 100 µM

ClC(Cl)(Cl)C(N1CCN(c2ccccc2)CC1)N1CCN(c2ccccc2)CC1
inactive: [1] > 100 µM | [2] > 100 µM | [3] > 100 µM | [4] > 100 µM | [5] > 100 µM | [6] > 100 µM | [7] > 100 µM | [9] > 100 µM | [10] > 100 µM | [11] > 100 µM | [12] > 100 µM | [15] > 100 µM | [16] > 100 µM | [17] > 100 µM | [18] > 100 µM

NC(=O)c1ncn(C2C=CC(CP(=O)(O)O)C2)c1N (stereo unspecified)
inactive: [2] > 100 µM | [3] > 100 µM | [4] > 100 µM | [5] > 100 µM | [6] > 100 µM | [7] > 100 µM | [8] > 100 µM | [9] > 100 µM | [10] > 100 µM | [11] > 100 µM | [12] > 100 µM | [19] > 100 µM | [13] > 100 µM | [14] > 100 µM | [15] > 100 µM | [16] > 100 µM | [17] > 100 µM | [18] > 100 µM

Cc1ccc2c(=O)c(-c3nnsn3)c[nH]c2n1
inactive: [1] > 100 µM | [2] > 100 µM | [3] > 100 µM | [4] > 100 µM | [5] > 100 µM | [6] > 100 µM | [7] > 100 µM | [8] > 100 µM | [9] > 100 µM | [11] > 100 µM | [12] > 100 µM | [13] > 100 µM | [15] > 100 µM | [16] > 100 µM | [17] > 100 µM | [18] > 100 µM

COC(=O)C1CCCN1C(=O)C(Cc1cn(S(=O)(=O)c2ccc(C)cc2)cn1)NC(=O)OC(C)(C)C (stereo unspecified)
inactive: [1] > 100 µM | [2] > 100 µM | [3] > 100 µM | [4] > 100 µM | [5] > 100 µM | [6] > 100 µM | [7] > 100 µM | [8] > 100 µM | [9] > 10 µM | [10] > 100 µM | [11] > 100 µM | [12] > 100 µM | [16] > 100 µM | [17] > 100 µM | [18] > 100 µM

O=C1CCCCCCCCCCC1CN(Cc1ccccc1)Cc1ccccc1 (stereo unspecified)
inactive: [2] 77.6 µM | [3] 36.3 µM | [4] 23.7 µM | [5] 37.7 µM | [6] 29.4 µM | [7] 30 µM | [8] 32.2 µM | [9] > 100 µM | [10] 78.2 µM | [11] 22.2 µM | [12] > 100 µM | [19] 45.2 µM | [13] 32.6 µM | [14] 54 µM | [15] > 100 µM | [16] 17.3 µM | [17] 34.9 µM | [18] 40.7 µM

O=[N+]([O-])C(=C(Nc1ccccc1)Nc1ccccc1)/C(Cl)=C(\Cl)[N+](=O)[O-]
inactive: [1] 19.7 µM | [2] 3.88 µM | [3] 3.41 µM | [4] 4.14 µM | [5] 3.62 µM | [6] 3.54 µM | [7] 2.61 µM | [8] 3.04 µM | [9] 2.67 µM | [11] 3.15 µM | [12] 2.48 µM | [19] 1.84 µM | [13] 9.35 µM | [14] 20.3 µM | [15] 6.62 µM | [16] 2.73 µM | [17] 12.9 µM | [18] 10.8 µM

Cc1ccsc1/C=N/Nc1ccccn1
inactive: [1] 55 µM | [2] 50 µM | [3] 43.1 µM | [4] 1.71 µM | [5] 98.6 µM | [6] 34.8 µM | [7] 74.6 µM | [8] 70.6 µM | [9] 71.1 µM | [10] 49.3 µM | [11] 19.3 µM | [12] > 100 µM | [13] > 100 µM | [14] > 100 µM | [15] 76.2 µM | [16] 43.8 µM | [17] > 100 µM | [18] 7.4 µM

O=c1onc2n1-c1ccc(Cl)cc1C(=S)N1CSCC21 (stereo unspecified)
inactive: [1] 23.1 µM | [2] 19.5 µM | [3] 25.4 µM | [4] 28.4 µM | [5] 52.5 µM | [6] 47.3 µM | [7] 66.8 µM | [9] 18.4 µM | [11] 31.3 µM | [12] 29.6 µM | [13] 17.5 µM | [14] 19.4 µM | [15] 59.2 µM | [16] 13.7 µM | [17] 22.3 µM | [18] 34.8 µM

Cc1ccc(S(=O)(=O)c2scc(-c3ccccc3)c2C)cc1
inactive: [2] > 100 µM | [3] 53 µM | [4] 61.1 µM | [5] > 100 µM | [6] > 100 µM | [7] 67.6 µM | [8] 38.1 µM | [9] > 100 µM | [10] 72.4 µM | [11] 44.2 µM | [12] > 100 µM | [19] 61 µM | [13] 42.8 µM | [14] > 100 µM | [15] > 100 µM | [16] 77.1 µM | [17] > 100 µM | [18] 57.8 µM

Cc1n[n+](CC(=O)c2ccccc2)c2sc(N)nn12
inactive: [1] > 100 µM | [2] > 100 µM | [3] > 100 µM | [4] > 100 µM | [5] > 100 µM | [6] > 100 µM | [7] > 100 µM | [8] > 100 µM | [9] > 100 µM | [11] > 100 µM | [12] > 100 µM | [13] > 100 µM | [14] > 100 µM | [15] > 100 µM | [16] > 100 µM | [17] > 100 µM | [18] 96.8 µM

Reference: ChEMBL document CHEMBL1201862, “PubChem BioAssay data set” (2004)
